Laboratory results published in patent publication US20250255847A1, “[…]s: Novel Drugs for Triple Negative Breast Cancer” (SIMMARON RSEARCH INC, priority 2024, published 2025).

Tests used:
MDA-MB-468 cells = assay: TUNEL assay in MDA-MB-468 cells; format: cell-based, human; conditions: 25 nM
Procedure: FIG. 11 illustrates an embodiment of the present invention and illustrates SIM-1 and SIM-2 induced apoptosis in MDA-MB-468 TNBC cells, but not HMEC control cells. MDA-MB-468 cells were treated with increasing doses of (A) SIM-1 and (B) SIM-2 for 48 hrs followed by lactate dehydrogenase (LDH) release assay in the supernatants. The result was offset with cell-bound LDH and presented as a percent of DMSO control as discussed under method section. Half-maximal cytotoxicity or CT50 analyses were performed plotting maximum response as an index of increasing doses of (C) SIM-1 and (D) SIM-2. AnnexinV (green) and propidium iodide (red) dual-labeling were performed to evaluate apoptotic response in MDA-MB-468 cells once treated with increasing doses of (E) SIM-1 and (F) SIM-2 for 24 hrs. […] (H) The number of TUNEL bodies were counted as a percent of 100 cresyl violet-stained blue cells. Ten independent images were counted for the quantification study. Similarly, SIM-2 was assessed for (I) TUNEL and (J) subsequent quantification analyses. […]
(§1) This example provides a representative experiment that studies if SIM-1 and SIM-2 promoted the death of TNBC cells. […] During apoptosis, phosphatidyl serine of the plasma membrane flips from the inner to the outer membrane which can be detected by Annexin V labeling, whereas PI stains the nucleus of a cell with compromised integrity of the plasma membrane. […]

MDA-MB-468 TNBC cells = assay: Annexin V / propidium iodide dual labeling in MDA-MB-468 cells; format: cell-based, human; conditions: 24 hrs; for membrane labeling of Annexin V and nuclear staining of PI: increasing doses
Procedure: (§2) FIG. 11 illustrates an embodiment of the present invention and illustrates SIM-1 and SIM-2 induced apoptosis in MDA-MB-468 TNBC cells, but not HMEC control cells. MDA-MB-468 cells were treated with increasing doses of (A) SIM-1 and (B) SIM-2 for 48 hrs followed by lactate dehydrogenase (LDH) release assay in the supernatants. The result was offset with cell-bound LDH and presented as a percent of DMSO control as discussed under method section. Half-maximal cytotoxicity or CT50 analyses were performed plotting maximum response as an index of increasing doses of (C) SIM-1 and (D) SIM-2. AnnexinV (green) and propidium iodide (red) dual-labeling were performed to evaluate apoptotic response in MDA-MB-468 cells once treated with increasing doses of (E) SIM-1 and (F) SIM-2 for 24 hrs. Nuclei were stained with DAPI. TUNEL assay was performed in MDA-MB-468 cells after treatment with 25 nM of (G) SIM-1. Brown-colored TUNEL bodies were visualized at cresyl violet-stained blue nuclei. (H) The number of TUNEL bodies were counted as a percent of 100 cresyl violet-stained blue cells. Ten independent images were counted for the quantification study. Similarly, SIM-2 was assessed for (I) TUNEL and (J) subsequent quantification analyses. One-way ANOVA was performed to test the significance of mean between groups at **p<0.01 and ****p<0.0001. (K) LDH release assay was performed in non-tumor origin human mammary epithelial cells (HMEC) once treated with increasing doses of SIM-1 and SIM-2 for 48 hrs. Ns=no significance. (L) Annexin V (green) and propidium iodide (red) staining was performed in 25 nM SIM-1- and SIM-2-treated HMEC cells. Nuclei were stained with DAPI. Results are confirmed after three different experiments.
Annexin V/PI Dual Staining Protocol. Annexin V/PI Dual Staining was performed as per manufacturer's instruction (Cat #: 2752665; Vendor: Thermo Fisher Scientific). Chamber slides of MDA-MB-468 cells in serum-free media were treated with SIMPYRA-1 and SIMPYRA-2 at doses of 2 nM, 5 nM, 10 nM, […] 50 nM for 24 hours at 37° C. Each well was washed with 1×PBS, then treated with 1× annexin-binding buffer, 100 ug/mL PI solution, and Annexin V solution. Chamber slides were incubated in the dark at room temperature for 2 hours. Each well was washed twice with 1×PBS and once with 1:500 dilution of DAPI in 1×PBS. Cells were imaged using CaptaVision+™ Software.
as §1

HMEC cells = assay: Annexin V/PI staining in HMEC cells; format: cell-based; conditions: 25 nM
Procedure: as §2, with “(K) LDH release assay was performed in non-tumor origin human mammary epithelial cells (HMEC) once treated with increasing doses of SIM-1 and SIM-2 for 48 hrs. Ns=no significance. (L) Annexin V (green) and propidium iodide (red) staining was performed in 25 nM SIM-1- and SIM-2-treated HMEC cells. Nuclei were stained with DAPI. Results are confirmed after three different experiments.” left out

O=C(O)CCC(=O)NCc1csc2ccc(Cl)cc12 [SIM-1, 4-[(5-chloro-1-benzothiophen-3-yl)methylamino]-4-oxobutanoic acid]
TUNEL response (MDA-MB-468 cells): strongly induced | concentration of maximum Annexin V / PI labeling (MDA-MB-468 TNBC cells): 25 nM | membrane labeling of Annexin V and nuclear staining of PI (MDA-MB-468 TNBC cells): dose-dependently increased | apoptosis in healthy normal cells (annexin V/PI) (HMEC cells): unable to induce apoptosis

CCOC(=O)c1c(NC(C)=O)sc2c(Cl)c(/C=N/O)ccc12 [SIM-2, ethyl 2-acetamido-7-chloro-6-(hydroxyiminomethyl)-1-benzothiophene-3-carboxylate]
TUNEL response (MDA-MB-468 cells): strongly induced | concentration of maximum Annexin V / PI labeling (MDA-MB-468 TNBC cells): 25 nM | membrane labeling of Annexin V and nuclear staining of PI (MDA-MB-468 TNBC cells): dose-dependently increased | apoptosis in healthy normal cells (annexin V/PI) (HMEC cells): unable to induce apoptosis
